Experimental findings from article PMC3544154 (Nature communications, 2011) are described below.

The assay has as its system neuroligin-1 induced synaptogenesis. Nature of the assay: Synapse microarray coculture assay: NLG1-induced synapsin clustering. The format is cell-based, rat. The conditions noted are these: for activity in coculture assay / NLG1-induced synaptogenesis (in words): synapse microarray, no single concentration stated.

`Cc1[nH]c2ccccc2c1CCNCc1ccc(/C=C/C(=O)NO)cc1` [LBH-589]: the “activity in coculture assay / NLG1-induced synaptogenesis (in words)” value is recorded as “potent”.

As for `CCC(=O)CCCCC[C@@H]1NC(=O)[C@H]2CCCCN2C(=O)[C@H]([C@@H](C)CC)NC(=O)[C@H](Cc2cn(OC)c3ccccc23)NC1=O` [apicidin], the “activity in coculture assay / NLG1-induced synaptogenesis (in words)” value is given as “greater potency than MS-275”.

For `O=C(CCCCCN1C(=O)c2cccc3cccc(c23)C1=O)NO` [scriptaid], the “activity in coculture assay / NLG1-induced synaptogenesis (in words)” value is on record as “potent”.

`CCCC(CCC)C(=O)O` [valproic acid]: under “10 μM”, the “effect on NLG1-induced synaptogenesis (in words)” value is “neither of the two compounds, valproic acid and phenylbutyric acid, affected synaptogenesis”.
